# From publication PMC5125025 (Science (New York, N.Y.), 2015)
# Assays:
# [1] = target: RsTSPO A139T mutant (Cereibacter sphaeroides, UniProt Q9RFC8, A139T); test: Ligand binding affinity of purified RsTSPO A139T mutant; parameters: species or system Rhodobacter sphaeroides
# [2] = test system: RsTSPO WT; conditions: cited from earlier work
# Chain of RsTSPO A139T mutant (Q9RFC8 whole entry A139T): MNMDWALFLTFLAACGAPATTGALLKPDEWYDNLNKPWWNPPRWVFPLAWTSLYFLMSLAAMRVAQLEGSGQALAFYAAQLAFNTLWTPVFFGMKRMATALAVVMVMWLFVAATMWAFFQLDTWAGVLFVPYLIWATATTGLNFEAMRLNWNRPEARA
smiles,measurement,setting,value
CC(C)CCC[C@@H](C)[C@H]1CC[C@H]2[C@@H]3CC=C4C[C@@H](O)CC[C@]4(C)[C@H]3CC[C@]12C [cholesterol],Kd,[1],> 300 µM
same,affinities of RsTSPO for ligands (range in words),[2],high nanomolar to micromolar range
"C=CC1=C(C)c2cc3[nH]c(cc4nc(cc5[nH]c(cc1n2)c(C)c5CCC(=O)O)C(CCC(=O)O)=C4C)c(C)c3C=C [PpIX, protoporphyrin IX]",Kd,[1],1.9 ± 0.3 µM
same,affinities of RsTSPO for ligands (range in words),[2],high nanomolar to micromolar range
CCC(C)N(C)C(=O)c1cc2ccccc2c(-c2ccccc2Cl)n1 (stereo not drawn) [PK11195],Kd,[1],42 ± 4 µM
same,affinities of RsTSPO for ligands (range in words),[2],high nanomolar to micromolar range
